The assay concerns Pyricularia oryzae. The assay is described as follows: Antifungal activity against Pyricularia oryzae assessed as inhibition of spore germination at 10 ppm. Type of assay: functional.

One may read the inhibition as the percentage by which the read-out fell short of the control. Consider `CC1(C)COC2=C(C1)C(=O)C(=O)c1ccccc12` [RHINACANTHONE], for which the inhibition at 10 ppm turned out to be 100%.

Values taken from ChEMBL document CHEMBL1159296, “A Revised Structure for Rhinacanthone” (1995).
